Experimental data from patent EP0313984A1, “Substituted azolyl methyl carbinols and pharmaceutical compositions containing them” (BAYER AG, priority 1987, dated 1989).
≈ marks a conversion by molar mass, not a printed value. Blank lines part the entries; values can stand above or below the compound they belong to.

Columns and labels:
[1] = system: Dermatophyten, Schimmelpilze, Hefen; assay: Antimycotic in-vitro activity, serial dilution test (overall comparison); format: cell-based; conditions: compared in words with known compounds (A) and (B)
Procedure: (§1) Die in-vitro-Prüfungen wurden im Reihenverdünnungstest mit Keiminokula von durchschnittlich 5 x 10³ bis 10⁴ Keimen/ml Substrat durchgeführt. Als Nährmedium dienten • a) für Dermatophyten und Schimmelpilze: Sabouraud's milieu d'epreuve • b) für Hefen: Fleischextrakt-Traubenzucker-Bouillon.
(§2) Die Bebrütungstemperatur betrug 28 °C bis 37 °C, die Bebrütungsdauer lag bei 24 bis 96 Stunden bei Hefen und 96 Stunden bei Dermatophyten und Schimmelpilzen.

Candida = assay: Antimycotic in-vivo activity (oral) in mouse candidosis; design: species or system Mäuse vom Typ SPF-CF₁
Procedure: Mäuse vom Typ SPF-CF₁ werden intravenös mit 1 - 2 x 10⁶ logarithmisch wachsenden Candida-Zellen, die in physiologischer Kochsalzlösung suspendiert werden, infiziert. Eine Stunde vor und sieben Stunden nach der Infektion werden die Tiere mit jeweils 25 - 100 mg/kg Körpergewicht der Präparate oral behandelt.
Unbehandelte Tiere sterben 3 bis 6 Tage post infektionem. Die Überlebensrate am 6.Tag post infektionem beträgt bei unbehandelten Kontrolltieren etwa 5 %.

Aspergillus fumigatus = assay: Antimycotic in-vitro activity, serial dilution test (MIC); format: cell-based; conditions: inoculum 5 x 10³ to 10⁴ Keime/ml, Sabouraud's milieu d'epreuve, 28 °C to 37 °C, 96 h, read-out: MHK-Werte Aspergillus fumigatus
Procedure: as §1, §2

Microsporum canis = assay: as above; format: cell-based; conditions: inoculum 5 x 10³ to 10⁴ Keime/ml, Sabouraud's milieu d'epreuve, 28 °C to 37 °C, 96 h, read-out: MHK-Werte Microsporum canis
Procedure: as §1, §2

Candida albicans = assay: as above; format: cell-based; conditions: inoculum 5 x 10³ to 10⁴ Keime/ml, Fleischextrakt-Traubenzucker-Bouillon, 28 °C to 37 °C, 24 to 96 h, read-out: MHK-Werte Candida albicans
Procedure: as §1, §2

Torulopsis glabrata = assay: as above; format: cell-based; conditions: Nakaseomyces glabratus, inoculum 5 x 10³ to 10⁴ Keime/ml, Fleischextrakt-Traubenzucker-Bouillon, 28 °C to 37 °C, 24 to 96 h, read-out: MHK-Werte Torulopsis glabrata
Procedure: as §1, §2

Trichophyton mentagr. = assay: as above; format: cell-based, Trichophyton mentagrophytes; conditions: inoculum 5 x 10³ to 10⁴ Keime/ml, Sabouraud's milieu d'epreuve, 28 °C to 37 °C, 96 h, read-out: MHK-Werte Trichophyton mentagr.
Procedure: as §1, §2

[2] = mouse candidosis, oral, compared in words with known compounds (A) and (B)

SMILES: OC(Cn1cncn1)(c1ccc(Cl)cc1)c1csc(-c2ccc(F)cc2)n1 (stereo not drawn) [Verbindung 41]
antimykotische Wirksamkeit [1]: bessere antimykotische Wirksamkeit
Wirkung (Candida; [2]): bessere Wirkung

SMILES: OC(Cn1cncn1)(c1ccc(Cl)cc1)c1csc(-c2ccc(-n3cncn3)cc2)n1 (stereo not drawn) [Verbindung 42]
antimykotische Wirksamkeit [1]: bessere antimykotische Wirksamkeit
Wirkung (Candida; [2]): bessere Wirkung

MIC (Aspergillus fumigatus): 32 mg/L (≈ 82.3 µM)
MIC (Microsporum canis): 64 mg/L (≈ 165 µM)
MIC (Candida albicans): 8 mg/L (≈ 20.6 µM)
MIC (Torulopsis glabrata): 16 mg/L (≈ 41.1 µM)
MIC (Trichophyton mentagr.): < 1 mg/L
SMILES: OC(Cn1ccnc1)(c1ccc(Cl)cc1)c1csc(N2CCCCC2)n1 (stereo not drawn) [Verbindung 18]
antimykotische Wirksamkeit [1]: bessere antimykotische Wirksamkeit

SMILES: Cc1ccc(C(O)(Cn2cncn2)c2csc(C)n2)cc1 (stereo not drawn) [Verbindung 57]
Wirkung (Candida; [2]): bessere Wirkung

MIC (Aspergillus fumigatus): > 64 mg/L
MIC (Candida albicans): 64 mg/L (≈ 237 µM)
MIC (Torulopsis glabrata): > 64 mg/L
MIC (Trichophyton mentagr.): 64 mg/L (≈ 237 µM)
SMILES: OC(Cn1cncn1)(Cn1cncn1)c1ccccc1 [(A), 2-Phenyl-1,3-bis-(1,2,4-triazol-1-yl)-propan-2-ol, reference compound]

MIC (Aspergillus fumigatus): 16 mg/L (≈ 40.4 µM)
MIC (Microsporum canis): 16 mg/L (≈ 40.4 µM)
MIC (Candida albicans): < 1 mg/L
MIC (Torulopsis glabrata): 4 mg/L (≈ 10.1 µM)
MIC (Trichophyton mentagr.): < 1 mg/L
SMILES: Cc1ccc(C(O)(Cn2ccnc2)c2csc(-c3ccc(Cl)cc3)n2)cc1 (stereo not drawn) [Verbindung 3]
antimykotische Wirksamkeit [1]: bessere antimykotische Wirksamkeit

SMILES: CCN(CC)c1nc(C(O)(Cn2cncn2)c2ccc(Cl)cc2)cs1 (stereo not drawn) [Verbindung 49]
antimykotische Wirksamkeit [1]: bessere antimykotische Wirksamkeit

SMILES: OC(Cn1ccnc1)(c1ccc(Cl)cc1)c1csc(-c2ccc(Cl)cc2)n1 (stereo not drawn) [Verbindung 20]
antimykotische Wirksamkeit [1]: bessere antimykotische Wirksamkeit

SMILES: Cc1cccc(-c2nc(C(O)(Cn3cncn3)c3ccc(Cl)cc3)cs2)c1 (stereo not drawn) [Verbindung 36]
antimykotische Wirksamkeit [1]: bessere antimykotische Wirksamkeit

SMILES: OC(Cn1ccnc1)(c1ccc(Cl)cc1)c1csc(-c2ccccc2)n1 (stereo not drawn) [Verbindung 62]
antimykotische Wirksamkeit [1]: bessere antimykotische Wirksamkeit

SMILES: OC(Cn1cncn1)(c1ccc(Cl)cc1)c1csc(-c2ccc(-n3cncn3)c(Cl)c2)n1 (stereo not drawn) [Verbindung 23]
antimykotische Wirksamkeit [1]: bessere antimykotische Wirksamkeit
Wirkung (Candida; [2]): bessere Wirkung

SMILES: OC(Cn1ccnc1)(c1ccc(Cl)cc1)c1csc(COc2ccc(Cl)cc2Cl)n1 (stereo not drawn) [Verbindung 25]
antimykotische Wirksamkeit [1]: bessere antimykotische Wirksamkeit

MIC (Aspergillus fumigatus): 32 mg/L (≈ 105 µM)
MIC (Candida albicans): 15 mg/L (≈ 49.3 µM)
MIC (Torulopsis glabrata): > 64 mg/L
MIC (Trichophyton mentagr.): 4 mg/L (≈ 13.1 µM)
SMILES: Cc1nc(C(O)(Cn2cncn2)c2ccc(F)cc2)cs1 (stereo not drawn) [Verbindung 1, 1-(4-Fluorphenyl)-1-(2-methylthiazol-4-yl)-2-(1,2,4-triazol-1-yl)-ethanol]
antimykotische Wirksamkeit [1]: bessere antimykotische Wirksamkeit

SMILES: CN(c1ccccc1)c1nc(C(O)(Cn2cncn2)c2ccc(Cl)cc2)cs1 (stereo not drawn) [Verbindung 43]
antimykotische Wirksamkeit [1]: bessere antimykotische Wirksamkeit

SMILES: OC(Cn1cncn1)(c1ccc(Cl)cc1)c1csc(Nc2ccccc2)n1 (stereo not drawn) [Verbindung 45]
antimykotische Wirksamkeit [1]: bessere antimykotische Wirksamkeit

SMILES: OC(Cn1cncn1)(c1ccc(F)cc1)c1csc(-c2ccc(F)cc2)n1 (stereo not drawn) [Verbindung 44]
antimykotische Wirksamkeit [1]: bessere antimykotische Wirksamkeit

SMILES: OC(Cn1cncn1)(c1ccc(F)cc1)c1csc(-c2ccc(Cl)cc2)n1 (stereo not drawn) [Verbindung 40]
antimykotische Wirksamkeit [1]: bessere antimykotische Wirksamkeit
Wirkung (Candida; [2]): bessere Wirkung

SMILES: OC(Cn1ccnc1)(c1ccc(F)cc1)c1csc(-c2ccc(Cl)cc2)n1 (stereo not drawn) [Verbindung 39]
antimykotische Wirksamkeit [1]: bessere antimykotische Wirksamkeit

SMILES: OC(Cn1cncn1)(c1ccc(F)cc1)c1csc(-c2ccccc2)n1 (stereo not drawn) [Verbindung 28]
antimykotische Wirksamkeit [1]: bessere antimykotische Wirksamkeit

SMILES: OC(Cn1ccnc1)(c1ccc(F)cc1)c1csc(-c2ccccc2)n1 (stereo not drawn) [Verbindung 27]
antimykotische Wirksamkeit [1]: bessere antimykotische Wirksamkeit

MIC (Aspergillus fumigatus): > 64 mg/L
MIC (Candida albicans): > 64 mg/L
MIC (Torulopsis glabrata): > 64 mg/L
MIC (Trichophyton mentagr.): > 64 mg/L
SMILES: CC(C)(n1cncn1)C(O)(Cn1ccnc1)c1ccc(F)cc1 (stereo not drawn) [(B), 2-(4-Fluorphenyl)-3-methyl-1-imidazol-1-yl-3-(1,2,4-triazol-1-yl)-butan-2-ol, reference compound]
Wirkung (Candida; mice infected i.v. with 1 - 2 x 10⁶ Candida cells, 25 - 100 mg/kg oral 1 h before and 7 h after infection, survival at day 6 p.i., class symbols, key not readable): k.w.

SMILES: OC(Cn1cncn1)(c1ccc(Cl)cc1)c1csc(-c2ccc(F)c(Cl)c2)n1 (stereo not drawn) [Verbindung 47]
antimykotische Wirksamkeit [1]: bessere antimykotische Wirksamkeit

SMILES: OC(Cn1cncn1)(c1ccc(Cl)cc1)c1csc(COc2ccc(Cl)cc2Cl)n1 (stereo not drawn) [Verbindung 26]
antimykotische Wirksamkeit [1]: bessere antimykotische Wirksamkeit

SMILES: Cc1ccccc1-c1nc(C(O)(Cn2cncn2)c2ccc(Cl)cc2)cs1 (stereo not drawn) [Verbindung 52]
antimykotische Wirksamkeit [1]: bessere antimykotische Wirksamkeit

SMILES: OC(Cn1cncn1)(c1ccc(Cl)cc1)c1csc(-c2ccccc2)n1 (stereo not drawn) [Verbindung 59]
antimykotische Wirksamkeit [1]: bessere antimykotische Wirksamkeit

SMILES: OC(Cn1ccnc1)(c1ccc(Cl)cc1)c1csc(-c2ccc(-n3ccnc3)c(Cl)c2)n1 (stereo not drawn) [Verbindung 22]
antimykotische Wirksamkeit [1]: bessere antimykotische Wirksamkeit
Wirkung (Candida; [2]): bessere Wirkung

MIC (Aspergillus fumigatus): 4 mg/L (≈ 10.1 µM)
MIC (Microsporum canis): 8 mg/L (≈ 20.2 µM)
MIC (Candida albicans): 2 mg/L (≈ 5.05 µM)
MIC (Torulopsis glabrata): 2 mg/L (≈ 5.05 µM)
MIC (Trichophyton mentagr.): < 1 mg/L
SMILES: Cc1ccc(-c2nc(C(O)(Cn3ccnc3)c3ccc(Cl)cc3)cs2)cc1 (stereo not drawn) [Verbindung 14]
antimykotische Wirksamkeit [1]: bessere antimykotische Wirksamkeit

MIC (Aspergillus fumigatus): 4 mg/L (≈ 10.1 µM)
MIC (Microsporum canis): 8 mg/L (≈ 20.2 µM)
MIC (Candida albicans): 4 mg/L (≈ 10.1 µM)
MIC (Torulopsis glabrata): 4 mg/L (≈ 10.1 µM)
MIC (Trichophyton mentagr.): < 1 mg/L
SMILES: Cc1ccc(-c2nc(C(O)(Cn3cncn3)c3ccc(Cl)cc3)cs2)cc1 (stereo not drawn) [Verbindung 15]
antimykotische Wirksamkeit [1]: bessere antimykotische Wirksamkeit

SMILES: OC(Cn1cncn1)(c1ccc(Cl)cc1)c1csc(-c2ccc(Cl)cc2)n1 (stereo not drawn) [Verbindung 21]
antimykotische Wirksamkeit [1]: bessere antimykotische Wirksamkeit
Wirkung (Candida; [2]): bessere Wirkung
